Here are results for eight molecules from patent US20260374773A1, “MULTI-CYCLIC IRAK AND FLT3 INHIBITING COMPOUNDS AND USES THEREOF” (CHILDREN'S HOSPITAL MEDICAL CENTER, priority 2022, published 2026).

pKd: −log10 of the molar value. A value given as a limit tells only on which side of the number the result lay.

The target of one experiment is T1, FLT3 D835Y (Homo sapiens, UniProt P36888, D835Y).
T1 sequence (P36888 27-993 D835Y): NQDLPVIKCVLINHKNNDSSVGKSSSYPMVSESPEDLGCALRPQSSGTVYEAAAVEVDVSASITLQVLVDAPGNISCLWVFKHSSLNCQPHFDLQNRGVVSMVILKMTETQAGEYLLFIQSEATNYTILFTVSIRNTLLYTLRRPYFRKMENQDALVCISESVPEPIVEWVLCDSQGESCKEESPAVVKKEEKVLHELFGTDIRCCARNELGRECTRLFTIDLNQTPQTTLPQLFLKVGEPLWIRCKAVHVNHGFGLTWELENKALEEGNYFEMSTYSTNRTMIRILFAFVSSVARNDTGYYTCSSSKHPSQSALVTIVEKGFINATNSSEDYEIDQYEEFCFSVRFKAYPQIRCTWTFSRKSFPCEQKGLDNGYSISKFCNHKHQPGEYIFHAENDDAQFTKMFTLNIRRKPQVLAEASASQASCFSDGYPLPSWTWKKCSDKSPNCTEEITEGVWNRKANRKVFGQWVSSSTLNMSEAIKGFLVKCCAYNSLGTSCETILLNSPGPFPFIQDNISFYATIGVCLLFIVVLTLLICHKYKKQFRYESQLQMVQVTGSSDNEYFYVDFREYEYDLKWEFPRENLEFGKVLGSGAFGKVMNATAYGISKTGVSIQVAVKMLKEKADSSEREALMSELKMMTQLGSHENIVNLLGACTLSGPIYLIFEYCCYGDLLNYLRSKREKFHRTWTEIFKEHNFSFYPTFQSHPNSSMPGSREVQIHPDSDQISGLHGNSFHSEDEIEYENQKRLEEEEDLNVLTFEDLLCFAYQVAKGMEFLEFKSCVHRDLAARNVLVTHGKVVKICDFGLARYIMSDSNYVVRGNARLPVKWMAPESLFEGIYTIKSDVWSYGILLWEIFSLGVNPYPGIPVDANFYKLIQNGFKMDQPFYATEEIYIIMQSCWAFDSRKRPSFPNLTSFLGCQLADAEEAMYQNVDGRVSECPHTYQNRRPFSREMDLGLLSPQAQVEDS
Description: DiscoverX KINOMEscan active site-directed competition binding, FLT3 D835Y. To be noted: Table 12; no ATP.
Excerpt: (§1) Kinase binding data were obtained for various exemplary compounds prepared according to Examples 1-8 using the DiscoverX KINOMEscan® active site-directed competition binding site-directed assay protocol described below. […] As a result, the data report thermodynamic interaction affinities (Kd values), rather than IC50 values that are dependent on ATP concentrations. The assay uses a DNA-tagged version of the protein kinase, and an immobilized ligand bound to a solid support. Compounds that directly or indirectly prevent kinase binding to the immobilized ligand reduce the amount of kinase captured on the solid support, which is detected using an ultra-sensitive qPCR method. Affinity constants reported from the assay have been reported to be independent of the immobilized ligand used that is coupled to the solid support (See supplemental information in Fabian, M. A. et. al., (2005) Nat. Biotechnol. 23, 329-336; Wodicka, L. M. et. al., (2010) Chem. Biol. 17, 1241-1249.)
Kinase-tagged T7 phage strains were prepared in an E. coli host derived from the BL21 strain. E. coli were grown to log-phase and infected with T7 phage and incubated with shaking at 32 °C until lysis. The lysates were centrifuged and filtered to remove cell debris. The remaining kinases were produced in HEK-293 cells and subsequently tagged with DNA for qPCR detection. Streptavidin-coated magnetic beads were treated with biotinylated small molecule ligands for 30 minutes at room temperature to generate affinity resins for kinase assays. The liganded beads were blocked with excess biotin and washed with blocking buffer (SeaBlock (Pierce), 1% BSA, 0.05% Tween 20, 1 mM DTT) to remove unbound ligand and to reduce non-specific binding. […] Test compounds were prepared as 111x stocks in 100% DMSO. Kds were determined using an 11-point 3-fold compound dilution series with three DMSO control points. All compounds for Kd measurements are distributed by acoustic transfer (non-contact dispensing) in 100% DMSO. The compounds were then diluted directly into the assays such that the final concentration of DMSO was 0.9%. All reactions were performed in polypropylene 384-well plates. Each was a final volume of 0.02 mL. The assay plates were incubated at room temperature with shaking for 1 hour and the affinity beads were washed with wash buffer (1×PBS, 0.05% Tween 20). The beads were then re-suspended in elution buffer (1×PBS, 0.05% Tween 20, 0.5 μM nonbiotinylated affinity ligand) and incubated at room temperature with shaking for 30 minutes. The kinase concentration in the eluates was measured by qPCR. Binding constants (Kds) were calculated with a standard dose-response curve using the Hill equation. The Hill Slope was set to −1. Curves were fitted using a non-linear least square fit with the Levenberg-Marquardt algorithm.
as §1, with “9-12” for “1-8”
Kinase-tagged T7 phage strains were prepared in an E. coli host derived from the BL21 strain. […]
`COc1cn2ncc(-c3nc(N[C@H]4CNCC[C@@H]4F)c(C#N)cc3F)c2nc1C(C)(C)O` [Compound 10, 5-fluoro-2-(((3S,4S)-4-fluoropiperidin-3-yl)amino)-6-(5-(2-hydroxypropan-2-yl)-6-methoxypyrazolo[1,5-a]pyrimidin-3-yl)nicotinonitrile] had a pKd of 9.68.

As for `COc1cn2ncc(-c3nc(N[C@H]4CNCC[C@@H]4F)c(C#N)cc3F)c2nc1C1CC1` [Compound 7, 6-(5-cyclopropyl-6-methoxypyrazolo[1,5-a]pyrimidin-3-yl)-5-fluoro-2-(((3S,4S)-4-fluoropiperidin-3-yl)amino)nicotinonitrile], the pKd was 9.38. Against the preceding molecule, the pKd is 0.30 log units lower.

With `COc1cn2ncc(-c3nc(N[C@H]4CNCC[C@@H]4F)c(F)cc3F)c2nc1C(C)(C)O` [Compound 13, 2-(3-(3,5-difluoro-6-(((3S,4S)-4-fluoropiperidin-3-yl)amino)pyridin-2-yl)-6-methoxypyrazolo[1,5-a]pyrimidin-5-yl)propan-2-ol], the pKd was greater than 9.77.

Still in this experiment, the particulars now being: Table 18; no ATP.
In turn, `COc1cn2ncc(-c3nc(N[C@@H]4CCCNC4)ncc3F)c2nc1C1CC1` [Compound 14a, (R)-4-(5-cyclopropyl-6-methoxypyrazolo[1,5-a]pyrimidin-3-yl)-5-fluoro-N-(piperidin-3-yl)pyrimidin-2-amine] had a pKd greater than 9.77.

For `COc1cn2ncc(-c3nc(N[C@H]4CNCC[C@@H]4F)ncc3F)c2nc1C(C)(C)O` [Compound 6a, 2-(3-(5-fluoro-2-(((3S,4S)-4-fluoropiperidin-3-yl)amino)pyrimidin-4-yl)-6-methoxypyrazolo[1,5-a]pyrimidin-5-yl)propan-2-ol], the pKd was greater than 9.77.

The molecule `COc1cn2ncc(-c3nc(N[C@H]4CNCC[C@@H]4F)ncc3F)c2nc1C1CC1` [Compound 15a, 4-(5-cyclopropyl-6-methoxypyrazolo[1,5-a]pyrimidin-3-yl)-5-fluoro-N-((3S,4S)-4-fluoropiperidin-3-yl)pyrimidin-2-amine] gave a pKd of 9.47.

In the case of `COc1cn2ncc(-c3cncc(N[C@H]4CNCC[C@@H]4F)n3)c2nc1C1CC1` [Compound 12a, 6-(5-cyclopropyl-6-methoxypyrazolo[1,5-a]pyrimidin-3-yl)-N-((3S,4S)-4-fluoropiperidin-3-yl)pyrazin-2-amine], the pKd is 9.21.

Consider `COc1cn2ncc(-c3ccnc(N[C@H]4CNCC[C@@H]4F)n3)c2nc1C1CC1` [Compound 7a, 4-(5-cyclopropyl-6-methoxypyrazolo[1,5-a]pyrimidin-3-yl)-N-((3S,4S)-4-fluoropiperidin-3-yl)pyrimidin-2-amine], for which the pKd is 9.10.

One may read the pKd as −log10 of the Kd, conventionally taken in molar units. A low value points to a large Kd.
